Test results reported in publication PMC10066720 (Journal of the American Chemical Society, 2022).

Tests used:
Format in all cases: biochemical
TEM-1 β-lactamase WT [1] = biological target: T1, TEM-1 β-lactamase WT (Escherichia coli, UniProt P62593); assay: AVB covalent inhibition kinetics
TEM-1 β-lactamase A237Y [2] = biological target: T2, TEM-1 β-lactamase A237Y (Escherichia coli, UniProt P62593, A235Y); assay: AVB covalent inhibition kinetics; conditions: A237Y TEM-1
[3] = biological target: T3, TEM-1 β-lactamase A237Y^e (ester) (Escherichia coli, UniProt P62593, A235Y); assay: AVB covalent inhibition kinetics; conditions: A237Y^e (ester) TEM-1
[4] = tested on: TEM-1 β-lactamase A237Y^e (ester); assay: AVB covalent inhibition kinetics; conditions: A237Y^e compared with A237Y
TEM-1 β-lactamase A237E [5] = biological target: T4, TEM-1 β-lactamase A237E (Escherichia coli, UniProt P62593, A235E); assay: AVB covalent inhibition kinetics; conditions: A237E TEM-1
TEM-1 β-lactamase A237R [6] = biological target: T5, TEM-1 β-lactamase A237R (Escherichia coli, UniProt P62593, A235R); assay: AVB covalent inhibition kinetics; conditions: A237R TEM-1
TEM-1 β-lactamase A237W [7] = biological target: T6, TEM-1 β-lactamase A237W (Escherichia coli, UniProt P62593, A235W); assay: AVB covalent inhibition kinetics; conditions: A237W TEM-1
TEM-1 β-lactamase WT [8] = biological target: T1, TEM-1 β-lactamase WT; assay: PenG acylation kinetics
TEM-1 β-lactamase A237Y [9] = biological target: T2, TEM-1 β-lactamase A237Y; assay: PenG acylation kinetics; conditions: A237Y TEM-1; median [68.25% confidence interval]
[10] = biological target: T3, TEM-1 β-lactamase A237Y^e (ester); assay: PenG acylation kinetics; conditions: A237Y^e (ester) TEM-1; median [68.25% confidence interval]
TEM-1 β-lactamase A237E [11] = biological target: T4, TEM-1 β-lactamase A237E; assay: PenG acylation kinetics; conditions: A237E TEM-1; median [68.25% confidence interval]
TEM-1 β-lactamase A237R [12] = biological target: T5, TEM-1 β-lactamase A237R; assay: PenG acylation kinetics; conditions: A237R TEM-1; median [68.25% confidence interval]
TEM-1 β-lactamase A237W [13] = biological target: T6, TEM-1 β-lactamase A237W; assay: PenG acylation kinetics; conditions: A237W TEM-1; median [68.25% confidence interval]

In the case of `NC(=O)[C@@H]1CC[C@@H]2CN1C(=O)N2OS(=O)(=O)O` [AVB, avibactam], the “AVB carbamylation rate, kcbm” value (TEM-1 β-lactamase WT [1]; WT TEM-1) is reported as 23.1 ± 0.2 s⁻¹, the “AVB recyclization rate, krec” value (TEM-1 β-lactamase WT [1]; WT TEM-1) is reported as “(2.3 ± 0.3) × 10^−4 s^−1” and the “enhancement of kcbm by the active site electric field” value (TEM-1 β-lactamase WT [1]; WT TEM·AVB, field −150 MV/cm) is reported as 7.5 orders of magnitude. For the same compound, the “acceleration of recyclization by the active site electric field” value (TEM-1 β-lactamase WT [1]; WT TEM−AVB, field −97 MV/cm) was 4.9 orders of magnitude, the “AVB carbamylation rate, kcbm” value (TEM-1 β-lactamase A237Y [2]) was 6.19 ± 0.08 s⁻¹ and the “AVB recyclization rate, krec” value (TEM-1 β-lactamase A237Y [2]) was “(1.7 ± 0.3) × 10^−3 s^−1”. The “AVB carbamylation rate, kcbm” value [3] was “(1.8 ± 0.1) × 10^−3 s^−1”, the “AVB recyclization rate, krec” value [3] was “(3.4 ± 0.1) × 10^−7 s^−1” and the “decrease in kcbm, factor” value [4] was 3.5 × 10^3. The “decrease in krec, factor” value [4] was 5.0 × 10^3, the “AVB carbamylation rate, kcbm” value (TEM-1 β-lactamase A237E [5]) was 4.63 ± 0.23 s⁻¹ and the “AVB recyclization rate, krec” value (TEM-1 β-lactamase A237E [5]) was “(8.7 ± 1.5) × 10^−5 s^−1”. The “AVB carbamylation rate, kcbm” value (TEM-1 β-lactamase A237R [6]) was 3.63 ± 0.03 s⁻¹, the “AVB recyclization rate, krec” value (TEM-1 β-lactamase A237R [6]) was “(6.2 ± 0.9) × 10^−4 s^−1” and the “AVB carbamylation rate, kcbm” value (TEM-1 β-lactamase A237W [7]) was 3.31 ± 0.05 s⁻¹. For the same compound, the “AVB recyclization rate, krec” value (TEM-1 β-lactamase A237W [7]) was “(6.7 ± 1.3) × 10^−4 s^−1”.
In the case of `CC1(C)S[C@@H]2[C@H](NC(=O)Cc3ccccc3)C(=O)N2[C@H]1C(=O)O` [PenG, penicillin G], the “PenG acylation rate, kac” value (TEM-1 β-lactamase WT [8]; WT TEM-1, median [68.25% confidence interval]) is reported as 4941 [4784, 5086] s^−1, the “enhancement of kac by the active site electric field” value (TEM-1 β-lactamase WT [8]; WT TEM·PenG, field −171 MV/cm) is reported as 8.6 orders of magnitude and the “PenG acylation rate, kac” value (TEM-1 β-lactamase A237Y [9]) is reported as 2838 [2740, 2940] s^−1. The “PenG acylation rate, kac” value [10] was 86.1 [69.2, 97.0] s^−1, the “PenG acylation rate, kac” value (TEM-1 β-lactamase A237E [11]) was 5857 [5288, 6012] s^−1 and the “PenG acylation rate, kac” value (TEM-1 β-lactamase A237R [12]) was 3265 [3137, 3396] s^−1. For the same compound, the “PenG acylation rate, kac” value (TEM-1 β-lactamase A237W [13]) was 1390 [1366, 1415] s^−1.
